# Measured values as given in patent US11427548B2 (Arvinas Operations, Inc., priority 2015, dated 2022).
# Read-outs that look alike come from different tables or passages of the source.
# Biological target: T1, Androgen Receptor (Homo sapiens, UniProt P10275)
# T1 construct: endogenous in cells; host or cells: VCaP cells
# T1 sequence (P10275 1-920): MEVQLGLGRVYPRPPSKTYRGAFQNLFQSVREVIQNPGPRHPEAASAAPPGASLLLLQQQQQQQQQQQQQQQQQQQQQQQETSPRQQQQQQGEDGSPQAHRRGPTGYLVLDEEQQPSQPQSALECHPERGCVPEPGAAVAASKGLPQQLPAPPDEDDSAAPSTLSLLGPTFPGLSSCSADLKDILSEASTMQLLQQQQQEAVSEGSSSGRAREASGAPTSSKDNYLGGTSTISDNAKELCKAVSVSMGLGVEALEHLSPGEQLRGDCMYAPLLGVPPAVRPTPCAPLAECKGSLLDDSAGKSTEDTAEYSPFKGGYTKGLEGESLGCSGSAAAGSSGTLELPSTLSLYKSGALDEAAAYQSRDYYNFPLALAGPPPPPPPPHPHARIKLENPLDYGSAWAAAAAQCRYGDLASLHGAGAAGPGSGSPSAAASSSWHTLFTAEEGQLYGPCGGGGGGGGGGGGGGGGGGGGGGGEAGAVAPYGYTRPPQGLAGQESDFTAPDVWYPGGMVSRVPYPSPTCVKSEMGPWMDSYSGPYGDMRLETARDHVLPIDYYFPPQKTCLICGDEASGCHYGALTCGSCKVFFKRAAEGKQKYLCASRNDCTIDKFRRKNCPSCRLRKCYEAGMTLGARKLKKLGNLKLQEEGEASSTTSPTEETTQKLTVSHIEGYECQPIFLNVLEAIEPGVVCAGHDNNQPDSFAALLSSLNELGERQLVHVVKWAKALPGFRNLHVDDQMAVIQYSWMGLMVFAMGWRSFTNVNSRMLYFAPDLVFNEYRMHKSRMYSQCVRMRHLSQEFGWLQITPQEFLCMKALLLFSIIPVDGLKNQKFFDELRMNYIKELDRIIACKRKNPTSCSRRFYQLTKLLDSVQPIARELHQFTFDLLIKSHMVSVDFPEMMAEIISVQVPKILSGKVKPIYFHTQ
# Experiment: Androgen Receptor ELISA assay (PathScan AR ELISA) in VCaP cells: AR degradation, Dmax and DC50
# Type: cell-based
# In short: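 VCaP cells, 30,000/well, grown ≥3 days in phenol red-free RPMI with 5% charcoal-stripped FBS; compound added in 0.1% DMSO with 0.1 nM R1881, 7 half-log doses, 24 h. Lysate AR quantified by PathScan sandwich ELISA, HRP/TMB read at 450 nm, giving DC50 and Dmax.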
# [1] = read-out: VCaP DC50; concentration that caused 50% Androgen Receptor degradation, VCaP cells (Table 32)
Structure (SMILES),"Dmax (VCaP, read-out: VCaP Dmax (%))",DC50 [1],"Dmax (VCaP, highest percentage of Androgen Receptor degradation observed, VCaP cells (Table 32); read-out: VCaP Dmax (%))","DC50 (concentration that caused 50% Androgen Receptor degradation, VCaP cells (Table 32); read-out: VCaP DC50)"
"Cc1ncsc1-c1ccc(CNC(=O)[C@@H]2C[C@@H](O)CN2C(=O)[C@@H](NC(=O)COCCCCNc2ccc(-c3ccc(N4C(=S)N(c5ccc(C#N)c(C(F)(F)F)c5)C(=O)C4(C)C)cc3)cc2)C(C)(C)C)cc1 [Example 103, (2S,4R)-1-[(2S)-2-[2-(4-{[4-(4-{3-[4-cyano-3-(trifluoromethyl)phenyl]-5,5-dimethyl-4-oxo-2-sulfanylideneimidazolidin-1-yl}phenyl)phen-yl]amino}butoxy)acetamido]-3,3-dimethylbutanoyl]-4-hydroxy-N-{[4-(4-methyl-1,3-thiazol-5-yl)phenyl]methyl}pyrrolidine-2-carboxamide]",> 71%,< 50 nM,–,–
"Cn1cncc1-c1ccc(CNC(=O)[C@@H]2C[C@@H](O)CN2C(=O)[C@@H](NC(=O)COCCCCOc2ccc(-c3ccc(N4C(=S)N(c5ccc(C#N)c(C(F)(F)F)c5)C(=O)C4(C)C)cc3)cc2)C(C)(C)C)cc1 [Example 104, (2S,4R)-1-[(2S)-2-(2-{4-[4-(4-{3-[4-cyano-3-(trifluoromethyl)phenyl]-5,5-dimethyl-4-oxo-2-sulfanylideneimidazolidin-1-yl}phenyl)phenoxy]butoxy}acetamido)-3,3-dimethylbutanoyl]-4-hydroxy-N-{[4-(1-methyl-1H-imidazol-5-yl)phenyl]methyl}pyrrolidine-2-carboxamide]",> 71%,< 50 nM,–,–
"CC(C)(C)[C@H](NC(=O)COCCCCOc1ccc(-c2ccc(N3C(=S)N(c4ccc(C#N)c(C(F)(F)F)c4)C(=O)C3(C)C)cc2)cc1)C(=O)N1C[C@H](O)C[C@H]1C(=O)NCc1ccc(-c2ocnc2Cl)cc1 [Example 105, (2S,4R)-N-{[4-(4-chloro-1,3-oxazol-5-yl)phenyl]methyl}-1-[(2S)-2-(2-{4-[4-(4-{3-[4-cyano-3-(trifluoromethyl)phenyl]-5,5-dimethyl-4-oxo-2-sulfanylideneimidazolidin-1-yl}phenyl)phenoxy]butoxy}acetamido)-3,3-dimethylbutanoyl]-4-hydroxypyrrolidine-2-carboxamide]",51 to 70%,51 to 500 nM,–,–
"CC(C)(C)[C@H](NC(=O)COCCCCOc1ccc(-c2ccc(N3C(=S)N(c4ccc(C#N)c(Cl)c4)C(=O)C3(C)C)c(F)c2)cc1)C(=O)N1C[C@H](O)C[C@H]1C(=O)NCc1ccc(-c2cnco2)cc1 [Example 106, (2S,4R)-1-[(2S)-2-{2-[4-(4-{4-[3-(3-chloro-4-cyanophenyl)-5,5-dimethyl-4-oxo-2-sulfanylideneimidazolidin-1-yl]-3-fluorophenyl}phen-oxy)butoxy]acetamido}-3,3-dimethylbutanoyl]-4-hydroxy-N-{[4-(1,3-oxazol-5-yl)phenyl]methyl}pyrrolidine-2-carboxamide]",> 71%,< 50 nM,–,–
"Cc1ncsc1-c1ccc(CNC(=O)[C@@H]2C[C@@H](O)CN2C(=O)[C@@H](NC(=O)COCCCCOc2ccc(-c3ccc(N4C(=S)N(c5ccc(C#N)c(Cl)c5)C(=O)C4(C)C)c(F)c3)cc2)C(C)(C)C)cc1 [Example 107, (2S,4R)-1-[(2S)-2-{2-[4-(4-{4-[3-(3-chloro-4-cyanophenyl)-5,5-dimethyl-4-oxo-2-sulfanylideneimidazolidin-1-yl]-3-fluorophenyl}phen-oxy)butoxy]acetamido}-3,3-dimethylbutanoyl]-4-hydroxy-N-{[4-(4-methyl-1,3-thiazol-5-yl)phenyl]methyl}pyrrolidine-2-carboxamide]",> 71%,< 50 nM,–,–
"CC(C)(C)[C@H](NC(=O)COCCCCOc1ccc(-c2ccc(N3C(=S)N(c4ccc(C#N)c(Cl)c4)C(=O)C3(C)C)c(F)c2)cc1)C(=O)N1C[C@H](O)C[C@H]1C(=O)NCc1ccc(-c2cncs2)cc1 [Example 108, (2S,4R)-1-[(2S)-2-{2-[4-(4-{4-[3-(3-chloro-4-cyanophenyl)-5,5-dimethyl-4-oxo-2-sulfanylideneimidazolidin-1-yl]-3-fluorophenyl}phen-oxy)butoxy]acetamido}-3,3-dimethylbutanoyl]-4-hydroxy-N-{[4-(1,3-thiazol-5-yl)phenyl]methyl}pyrrolidine-2-carboxamide]",> 71%,< 50 nM,–,–
"CC(C)(C)[C@H](NC(=O)COCCCCOc1ccc(-c2ccc(N3C(=S)N(c4ccc(C#N)c(Cl)c4)C(=O)C3(C)C)cc2F)cc1)C(=O)N1C[C@H](O)C[C@H]1C(=O)NCc1ccc(-c2cnco2)cc1 [Example 109, (2S,4R)-1-[(2S)-2-{2-[4-(4-{4-[3-(3-chloro-4-cyanophenyl)-5,5-dimethyl-4-oxo-2-sulfanylideneimidazolidin-1-yl]-2-fluorophenyl}phen-oxy)butoxy]acetamido}-3,3-dimethylbutanoyl]-4-hydroxy-N-{[4-(1,3-oxazol-5-yl)phenyl]methyl}pyrrolidine-2-carboxamide]",> 71%,< 50 nM,–,–
"Cc1ncoc1-c1ccc(CNC(=O)[C@@H]2C[C@@H](O)CN2C(=O)[C@@H](NC(=O)COCCCCOc2ccc(-c3ccc(N4C(=S)N(c5ccc(C#N)c(Cl)c5)C(=O)C4(C)C)cc3)cc2)C(C)(C)C)cc1 [Example 110, (2S,4R)-1-[(2S)-2-{2-[4-(4-{4-[3-(3-chloro-4-cyanophenyl)-5,5-dimethyl-4-oxo-2-sulfanylideneimidazolidin-1-yl]phenyl}phenoxy)butoxy]acetamido}-3,3-dimethylbutanoyl]-4-hydroxy-N-{[4-(4-methyl-1,3-oxazol-5-yl)phenyl]methyl}pyrrolidine-2-carboxamide]",> 71%,< 50 nM,–,–
"CC(C)(C)[C@H](NC(=O)COCCCCOc1ccc(-c2ccc(N3C(=S)N(c4ccc(C#N)c(Cl)c4)C(=O)C3(C)C)cc2)cc1)C(=O)N1C[C@H](O)C[C@H]1C(=O)NCc1ccc(-c2cncs2)cc1 [Example 111, (2S,4R)-1-[(2S)-2-{2-[4-(4-{4-[3-(3-chloro-4-cyanophenyl)-5,5-dimethyl-4-oxo-2-sulfanylideneimidazolidin-1-yl]phenyl}phenoxy)butoxy]acetamido}-3,3-dimethylbutanoyl]-4-hydroxy-N-{[4-(1,3-thiazol-5-yl)phenyl]methyl}pyrrolidine-2-carboxamide]",> 71%,< 50 nM,–,–
"Cc1ncsc1-c1ccc(CNC(=O)[C@@H]2C[C@@H](O)CN2C(=O)[C@@H](NC(=O)COCCCCOc2ccc(-c3ccc(N4C(=S)N(c5ccc(C#N)c(Cl)c5)C(=O)C4(C)C)cc3)cc2)C(C)(C)C)cc1 [Example 112, (2S,4R)-1-[(2S)-2-{2-[4-(4-{4-[3-(3-chloro-4-cyanophenyl)-5,5-dimethyl-4-oxo-2-sulfanylideneimidazolidin-1-yl]phenyl}phen-oxy)butoxy]acetamido}-3,3-dimethylbutanoyl]-4-hydroxy-N-{[4-(4-methyl-1,3-thiazol-5-yl)phenyl]methyl}pyrrolidine-2-carboxamide]",> 71%,< 50 nM,–,–
"Cc1ncsc1-c1ccc(CNC(=O)[C@@H]2C[C@@H](O)CN2C(=O)[C@@H](NC(=O)COc2cccc(Oc3ccc(-c4ccc(N5C(=S)N(c6ccc(C#N)c(C(F)(F)F)c6)C(=O)C5(C)C)cc4)cc3)c2)C(C)(C)C)cc1 [Example 114, (2S,4R)-1-[(2S)-2-(2-{3-[4-(4-{3-[4-cyano-3-(trifluoromethyl)phenyl]-5,5-dimethyl-4-oxo-2-sulfanylideneimidazolidin-1-yl}phenyl)phen-oxy]phenoxy}acetamido)-3,3-dimethylbutanoyl]-4-hydroxy-N-{[4-(4-methyl-1,3-thiazol-5-yl)phenyl]methyl}pyrrolidine-2-carboxamide]",51 to 70%,< 50 nM,–,–
"COc1cc(N2C(=O)C(C)(C)N(c3ccc(-c4ccc(OCCCCOCC(=O)N[C@H](C(=O)N5C[C@H](O)C[C@H]5C(=O)NCc5ccc(-c6ocnc6C)cc5)C(C)(C)C)cc4)cc3)C2=S)ccc1C#N [Example 115, (2S,4R)-1-[(2S)-2-{2-[4-(4-{4-[3-(4-cyano-3-methoxyphenyl)-5,5-dimethyl-4-oxo-2-sulfanylideneimidazolidin-1-yl]phenyl}phenoxy)butoxy]acetamido}-3,3-dimethylbutanoyl]-4-hydroxy-N-{[4-(4-methyl-1,3-oxazol-5-yl)phenyl]methyl}pyrrolidine-2-carboxamide]",–,–,> 71%,< 50 nM
